Data taken from patent US20260248126A1, “BIOCIDE” (PURGOS APS, priority 2020, published 2026).
Entries after “also recorded” stand apart in the source; their conditions may differ.

Legend:
[1] = tested on: Coniophora puteana. BAM Ebw. 15; test: EN 113 test against wood destroying basidiomycetes (impregnated Scots pine sapwood); assay type: cell-based
Aspergillus niger ISI 3 = test: Minimal inhibitory concentration (MIC), microtiter plate read visually; assay type: cell-based
Protocol: (§1) For the tested substance. the stock solution was 10%. Minimum inhibitory concentrations (MICs) are defined as the lowest concentration of an antimicrobial that will inhibit the visible growth of a microorganism after a standardized incubation. In the present study, MIC assay was performed by pipetting robot. The principle is that an indicator microorganism at a defined cell density is cultured with a range of concentrations of the test compound, one concentration pr. well in a row on the microtiter plate. For bacteria and yeasts the minimal inhibitory concentration was detected as no increase of optical density (OD), for moulds microtiter plates were read visually. Each indicator organism is tested in duplicate and the MIC is calculated as the average of the two determinations. The tested concentrations of the antimicrobial substances were 2-fold dilutions from 5%. All indicator organisms (see Table 2.) were pre-cultivated in a suitable growth medium and diluted in the same medium to give a final concentration in the assay of ~1×10^3 cfu/ml. The microtiter plates were incubated under specific incubation conditions (see Table 3). [table]

bacterial count in paint = test: In-can preservation of paint, long-time study (bacterial count over time, FIGS. 2-5); assay type: cell-based
Protocol: The results shown that 0.5% NBDA as sole active ingredient for in-can preservation are as successful over times up to at least as year as in-can preservation by 0.5% NBDA together with 0.5% hydrogen peroxide. FIGS. 2-4 show graphs visualizing data on long term effectivity as NBDA as an in-can additive for preservation of paint. […] In […] the development in bacterial count over time for the abovementioned additives are carried out at RT, 32° C. and 60° C. respectively. The starting point is a stained sample i.e., paint with an initial high bacteria count. […] The results shown are for the development in bacterial count over time for paint samples containing 0.5% NBDA alone and 0.5% NBDA+0.5% Hydrogen Peroxide.

Bacillus cereus ISI 842 = test: Minimal inhibitory concentration (MIC), microtiter plate; assay type: cell-based
Protocol: as §1

[2] = tested on: Streptococcus termophilus ISI 1563; test: as above; assay type: cell-based
Protocol: as §1

[3] = tested on: Lactobacillus brevis ISI 2269; test: as above; assay type: cell-based
Protocol: as §1

[4] = tested on: Listeria monocytogenes ISI 22; test: as above; assay type: cell-based
Protocol: as §1

[5] = tested on: Pseudomonas aeruginosa ISI 1462; test: as above; assay type: cell-based
Protocol: as §1

[6] = tested on: Leuconostoc mesenteroides ISI 504; test: as above; assay type: cell-based
Protocol: as §1

[7] = tested on: Debaryomyces hansenii ISI 12; test: as above; assay type: cell-based
Protocol: as §1

[8] = tested on: Canidida albicans ISI 1226; test: Minimum bactericidal concentration (MBC), outgrowth from MIC plates; assay type: cell-based, Candida albicans
Description: Even when no growth is detectable in the MIC tests, it is possible that the microorganisms have survived the treatment i.e., they are not killed but just prevented from growing. In order to test for survivors, MBC plates were subsequently made from the MIC plates.

[9] = tested on: selected typical species of contaminants; test: Substitution of conventional biocides with NBDA in product recipes: biocidal function (LuminUltra test, 32° C. incubation, Examples 3-6); assay type: cell-based
Description: Provision and test of the N-sample can be optional.
Ideally, the T, C and N-samples are provided and stored using methods, protocols, raw materials, conditions and the like, which are very close, and ideally identical, mutatis mutandis. In particular, the samples should be subjected to similar or identical microbial contamination during their provision, and or storage if possible.
Samples, such as test-, control- and/or negative control samples are provided according to Example 3. To assess the effect of the biocide(s), microbial contamination is measured, such as according to Example 6, or other conventional methods known in the art.
In short, samples are exposed to microbial contamination (microbial stress test) e.g., by opening a lid and closing it for a defined period of time, or other operations, mimicking a conventional user situation. Alternatively, samples can be inoculated with defined quantities of microorganisms, such as one or more indicator microorganism.
The samples can be divided into different aliquots, and incubated for selected periods at one or more relevant temperatures, such as e.g., one or more of 4° C., room temperature (RT, usually 20° C., 22° C., or 25° C.), 30° C., 32° C., 37° C., 40° C., and/or 60° C.), simulating e.g., appropriate storage, processing and usage conditions.
Microbial contamination of control, test and/or negative control samples can be determined according to Example 6.
ATP, such as intracellular ATP is measured using a commercially available system, such as provided by LumiUltra®, in particular a method using luminase (Aqua Tools, see details below).
In short, a buffering solution and Luminase enzyme are mixed. After daily ATP standard calibration, an aliquot, such as 1 ml of sample is transferred to an 1 ml extraction tube. After dilution in UltraLute resin, the total ATP (content can be established in the luminescence measuring device. 2) 1 ml sample is dissolved in LumiSolve stabilizing agent. […] For further details, see e.g., Aqua Tools (78300 Poissy, France) Quick reference guide QuenchGone21™ Speciality Test Kit QG21S-50/QG21St-100 2G.

SMILES: CCCCN(CCO)CCO [NBDA, N-butyldiethanolamine]
- Toxic value, Sol. conc. [1]: >1.43 % w/w
- MIC (%) (Aspergillus niger ISI 3): 0.63%
- long term effectivity, bacterial count over time (bacterial count in paint; initial clean sample (low bacterial count), 0.5% NBDA, FIG. 5): as effective as 0.5% NBDA+0.5% Hydrogen peroxide for preventing bacterial growth in paint samples
- long term effectivity, bacterial count over time (bacterial count in paint; initial high count, 0.5% and 1% NBDA, RT, 32° C., 60° C., FIGS. 2-4): consistent long-term results for in-can preservation of paint; also recorded: as effective as NBDA+Hydrogen Peroxide for both NBDA concentrations at all three test temperatures long term; also recorded: highly effective as the sole biocide additive for in-can preservation of paints
- long term effectivity, bacterial count over time (bacterial count in paint; initial high count, 0.5% and 1% NBDA, RT, 32° C., 60° C., FIGS. 2-4, listed as N-butyldiethanolamine): no bacterial growth even for sustained periods of time; also recorded: sustained effect after more than a year
- MIC (%) (Bacillus cereus ISI 842): 1.25%
- MIC (%) [2]: 0.63%
- MIC (%) [3]: 0.16%
- MIC (%) [4]: 1.25%
- MIC (%) [5]: 0.63%
- MIC (%) [6]: 0.31%
- MIC (%) [7]: 1.25%
- MBC(%) [8]: 1.25%
- biocidal effect vs normal biocide package ([9]; Styrene-Butadiene-Rubber (SBR)-emulsion, MIT and/or BIT replaced (Example 16)): comparable and better than the normal biocide package
- biocidal effect vs benzalkonium chloride ([9]; algae removing compound, 1-5% (Example 9)): comparable or even surpassing benzalkonium chloride in function
- biocidal effect vs benzalkonium chloride ([9]; circulating heat-transfer systems, 1-5% (Example 13)): comparable to benzalkonium chloride
- biocidal effect vs normal biocide package ([9]; combination products: dispersions, emulsions, suspensions (Example 19)): comparable and better than the normal biocide package
- preservation effect vs food preservatives ([9]; food, comparable amounts (Example 40)): shows compatibility and suitable preservation effect(s)
- biocidal effect vs normal biocide package ([9]; hand cleanser (Example 37)): comparable or even better than the normal biocide package
- biocidal effect vs conventional biocide ([9]; liquid dishwashing compound, MIT and/or BIT replaced with 0.01-1% (Example 7)): comparable to or even surpassing the conventional biocide
- biocidal effect vs benzalkonium chloride ([9]; liquid disinfection compound for pipes, 1-5% (Example 11)): comparable to benzalkonium chloride
- biocidal effect vs benzalkonium chloride and glutaraldehyde ([9]; liquid disinfection compound for stables, 1-5% (Example 10)): comparable or even surpassing both benzalkonium chloride and glutaraldehyde in function
- biocidal effect vs benzalkonium chloride ([9]; liquid disinfection compound, 1-5% (Example 8)): comparable or even surpassing benzalkonium chloride in function
- biocidal effect vs normal biocide package ([9]; moisturizing crème / skin- or face-care product (Example 35)): comparable or even better than the normal biocide package
- performance vs MIT/BIT system ([9]; precoat composition containing SBR, 0.5% NBDA (Example 24)): same performance as the origin
- biocidal effect vs normal biocide package ([9]; soap (Example 38)): comparable or even better than the normal biocide package
- biocidal effect vs normal biocide package ([9]; stabilized suspension, MIT and BIT replaced (Example 18)): comparable and better than the normal biocide package
- biocidal effect vs chlorine based solutions ([9]; swimmingpool water (Example 36)): comparable or even better than chlorine based traditional solutions
- biocidal effect vs benzoate ([9]; toothpaste, benzoate replaced with similar concentration (Example 34)): comparable or even better than benzoate
- biocidal effect vs benzalkonium chloride ([9]; waterborne cooling compound, 1-5% (Example 12)): comparable or surpassing benzalkonium chloride
- biocidal effect vs benzalkonium chloride ([9]; watersystems for toilets, washing facilities, 1-5% (Example 14)): comparable to benzalkonium chloride
